The source of these data is paper PMC8788354 (Journal of Enzyme Inhibition and Medicinal Chemistry, 2022).

In data set [1] the test system is SKBR-3 (human breast cancer cell line). Kind of data set: cells. Type of data set: cell-based. As to conditions: for IC50: SRB assay, 72 h exposure, read-out: Anticancer activity IC50 (nM) ± SD, SKBR-3. (Sulforhodamine B stains cellular protein and so reports cell mass.)
The test system of data set [2] is SKOV-3 (ovarian cancer cell line). Nature of the data set: cells. As to conditions: for IC50: SRB assay, 72 h exposure, read-out: Anticancer activity IC50 (nM) ± SD, SKOV-3. Type of data set: cell-based, human.
The subject of data set [3] is U-87MG cells (glioblastoma cell line). Nature of the data set: cells. The class given is cell-based, human. As to conditions: SRB assay, 72 h exposure, read-out: Anticancer activity IC50 (nM) ± SD, U-87.
Data set [4] has as its system PC-3 (human prostate cancer cell line). Kind of data set: cells. As to conditions: for IC50: SRB assay, 72 h exposure, read-out: Anticancer activity IC50 (nM) ± SD, PC-3. The class given is cell-based.
A further data set is described as follows: in vitro. As to conditions: human.
Setting [5] is: Toxicity IC50 (nM) ± SD, HDF, healthy cell line HDF, SRB assay, 72 h exposure.

Like-named read-outs stand apart in the source and are kept apart here.

With `COc1cc2c(c(OC)c1OC)-c1ccc(OCc3cn(Cc4ccc([N+](=O)[O-])cc4)nn3)c(=O)cc1[C@@H](NC(C)=O)CC2` [Compound 6c], the IC50 in data set [1] (Homo sapiens, SK-BR-3, 72 h) was found to be 2.88 ± 0.06 nM; in data set [2] (Homo sapiens, SK-OV-3), 2.42 ± 0.11 nM; in data set [3] (Homo sapiens, U-87 MG) it was 2.81 ± 0.18 nM; in data set [4] (Homo sapiens), 2.05 ± 0.03 nM; in “in vitro” (setting [5]) it was 4.08 ± 0.26 nM.

On to `COc1cc2c(c(OC)c1OC)-c1ccc(=O)c(OCc3cn(Cc4ccccc4)nn3)cc1[C@@H](NC(C)=O)CC2` [Compound 5a], for which the IC50 in data set [1] (Homo sapiens, SK-BR-3, 72 h) is 3.07 ± 0.11 nM; in data set [2] (Homo sapiens, SK-OV-3), 3.28 ± 0.06 nM; in data set [3] (Homo sapiens, U-87 MG), 3.74 ± 0.19 nM; in data set [4] (Homo sapiens) it was 3.21 ± 0.15 nM; in “in vitro” (setting [5]), 5.28 ± 0.22 nM.

As for `COc1cc2c(c(OC)c1OC)-c1ccc(=O)c(OCc3ccc(/C=C/c4ccc5ccccc5c4)cc3)cc1[C@@H](NC(C)=O)CC2` [Compound 7a], the IC50 amounted to 8.02 ± 0.08 nM in data set [1] (Homo sapiens, SK-BR-3, 72 h); 8.54 ± 0.71 nM in data set [2] (Homo sapiens, SK-OV-3); 8.63 ± 0.14 nM in data set [3] (Homo sapiens, U-87 MG); 8.61 ± 0.38 nM in data set [4] (Homo sapiens); 8.19 ± 0.92 nM in the data set “in vitro” (setting [5]).

In the case of `COc1cc2c(c(OC)c1OC)-c1ccc(OCc3cn(CCCNC4=C5C[C@@H](C)C[C@H](OC)[C@H](O)[C@@H](C)/C=C(\C)[C@H](OC(N)=O)[C@@H](OC)/C=C\C=C(/C)C(=O)NC(=CC4=O)C5=O)nn3)c(=O)cc1[C@@H](NC(C)=O)CC2` [Compound 6f], the 50% inhibitory concentration (IC50) in data set [1] (Homo sapiens, SK-BR-3, 72 h) was found to be 17.4 ± 0.64 nM; in data set [2] (Homo sapiens, SK-OV-3) it was 15.3 ± 0.31 nM; in data set [3] (Homo sapiens, U-87 MG) it was 17.3 ± 0.35 nM; in data set [4] (Homo sapiens) it was 17.84 ± 0.16 nM; in the data set “in vitro” (setting [5]), 18 ± 0.24 nM.

Take `C=CCOc1cc2c(ccc1=O)-c1c(cc(OC)c(OC)c1OC)CC[C@@H]2NC(C)=O` [Compound 3d]: the half-inhibitory concentration (IC50) in data set [1] (Homo sapiens, SK-BR-3, 72 h) amounted to 1.09 ± 0.01 nM; in data set [2] (Homo sapiens, SK-OV-3), 1.68 ± 0.09 nM; in data set [3] (Homo sapiens, U-87 MG) it was 1.63 ± 0.04 nM; in data set [4] (Homo sapiens), 1.05 ± 0.01 nM; in the data set “in vitro” (setting [5]), 2.83 ± 0.05 nM.

For `COc1cc2c(c(OC)c1OC)-c1ccc(OC/C=C/c3ccccc3)c(=O)cc1[C@@H](NC(C)=O)CC2` [Compound 4c], the 50% inhibitory concentration (IC50) in data set [1] (Homo sapiens, SK-BR-3, 72 h) is 3.46 ± 0.07 nM; in data set [2] (Homo sapiens, SK-OV-3), 3.05 ± 0.03 nM; in data set [3] (Homo sapiens, U-87 MG), 3.82 ± 0.22 nM; in data set [4] (Homo sapiens) it was 3.19 ± 0.01 nM; in the data set “in vitro” (setting [5]), 4.94 ± 0.15 nM.

For the compound `C/C=C/COc1ccc2c(cc1=O)[C@@H](NC(C)=O)CCc1cc(OC)c(OC)c(OC)c1-2` [Compound 4e], the IC50 worked out at 1.97 ± 0.04 nM in data set [1] (Homo sapiens, SK-BR-3, 72 h); 1.92 ± 0.11 nM in data set [2] (Homo sapiens, SK-OV-3); 1.93 ± 0.02 nM in data set [3] (Homo sapiens, U-87 MG); 1.98 ± 0.05 nM in data set [4] (Homo sapiens); 2.66 ± 0.03 nM in the data set “in vitro” (setting [5]).

Consider `COc1cc2c(c(OC)c1OC)-c1ccc(=O)c(O)cc1[C@@H](NC(C)=O)CC2` [Compound 2, colchiceine, reference compound], for which the IC50 worked out at 1.04 ± 0.07 nM in data set [1], 1.88 ± 0.02 nM in data set [2], 1.26 ± 0.04 nM in data set [3] and 1.37 ± 0.02 nM in data set [4].

`Nc1ccn([C@@H]2O[C@H](CO)[C@@H](O)[C@@H]2O)c(=O)n1` [C, cytarabine, reference compound]: the IC50 in data set [1] (Homo sapiens, SK-BR-3, 72 h) was 870 ± 10 nM; in data set [2] (Homo sapiens, SK-OV-3) it was 990 ± 110 nM; in data set [3] (Homo sapiens, U-87 MG), 850 ± 31 nM; in data set [4] (Homo sapiens) it was 810 ± 10 nM. For the same compound, in the data set “in vitro” (Human Dermal Fibroblasts (HDF) cells, Toxicity IC50 (nM) ± SD, HDF, healthy cell line HDF, SRB assay, 72 h exposure), the IC50 at 72 h came out at 5940 ± 70 nM.

As to `COc1cc2c(c(OC)c1OC)-c1ccc(=O)c(OCc3ccccc3)cc1[C@@H](NC(C)=O)CC2` [Compound 3a], the IC50 turned out to be 2.04 ± 0.51 nM in data set [1] (Homo sapiens, SK-BR-3, 72 h); 2.19 ± 0.07 nM in data set [2] (Homo sapiens, SK-OV-3); 2.83 ± 0.06 nM in data set [3] (Homo sapiens, U-87 MG); 2.27 ± 0.04 nM in data set [4] (Homo sapiens); 6.39 ± 1.04 nM in “in vitro” (setting [5]). The “Selectivity index (SI), SKBR-3” value in data set [1] (SI = IC50 HDF/IC50 SKBR-3) was about 3.

As to `COc1cc2c(c(OC)c1OC)-c1ccc(OC)c(=O)cc1[C@@H](NC(C)=O)CC2` [Compound 1, colchicine, reference compound], inhibition in “in vitro” was half-maximal at 2.37 ± 0.15 nM (IC50).

As to `COc1cc2c(c(OC)c1OC)-c1ccc(OCCCN=[N+]=[N-])c(=O)cc1[C@@H](NC(C)=O)CC2` [Compound 4i], the IC50 in data set [1] (Homo sapiens, SK-BR-3, 72 h) stood at 1.38 ± 0.03 nM; in data set [2] (Homo sapiens, SK-OV-3), 1.37 ± 0.09 nM; in data set [3] (Homo sapiens, U-87 MG) it was 1.19 ± 0.03 nM; in data set [4] (Homo sapiens), 1.49 ± 0.16 nM; in the data set “in vitro” (setting [5]), 2.58 ± 0.12 nM.

`C#CCOc1cc2c(ccc1=O)-c1c(cc(OC)c(OC)c1OC)CC[C@@H]2NC(C)=O` [Compound 3f]: the IC50 amounted to 1.37 ± 0.02 nM in data set [1] (Homo sapiens, SK-BR-3, 72 h); 1.05 ± 0.07 nM in data set [2] (Homo sapiens, SK-OV-3); 1.14 ± 0.01 nM in data set [3] (Homo sapiens, U-87 MG); 1.05 ± 0.03 nM in data set [4] (Homo sapiens); 2.83 ± 0.44 nM in the data set “in vitro” (setting [5]). Moreover, in data set [2] (SI = IC50 HDF/IC50 SKOV-3), the “Selectivity index (SI), SKOV-3” value was about 2.7. Further, the “Selectivity index (SI), PC-3” value in data set [4] (SI = IC50 HDF/IC50 PC-3) is on record as about 2.7.

Usually IC50 stands for the concentration needed to halve the response being measured.
